Key:
[1] = tested on: IL-4; test: IL-4 secretion inhibition, PMA and A23187-stimulated MC/9 mast cells (ELISA); assay type: cell-based; conditions: Mus musculus, Mast cell; positive control 10 nM; PMA + A23187, 7 hr; read-out: Inhibition rate of IL-4 (%)
Experimental: (§1) MC/9 mouse mast cells seeded in a 96-well plate were treated with 20 nM PMA (Phorbol Myristate Acetate) and 0.5 μM or 1 μM calcium ionophore A23187, together with various concentrations of the Illicium verum extract (0, 25, 50, 100, 200 and 400 μg/ml). […] Seven hour later, the secreted amount of cytokines in medium was measured using the ELISA kit (R&D systems Inc., Minneapolis, USA). The 100% activity was calculated with referring to difference of the secreted cytokine amount between the untreated group and the treated group with PMA and A23187.
(§2) The secretion amount was calculated as follows: [1−(the amount of the secreted cytokine in the treated group−the amount of the secreted cytokine in the untreated group)/(the amount of secreted […] in the untreated group]×100.
(§3) The inhibition rate was calculated as follows: [1−(the amount of the secreted cytokine in the treated group−the amount of the secreted cytokine in the untreated group)/(the amount of secreted cytokine in positive control−the amount of the secreted cytokine in the untreated group]×100.
(§4) All data were expressed as mean±standard deviation. Student's t-test was used to examine differences among groups and the data with p<0.05 were considered as statistically significant.

[2] = tested on: IL-8; test: IL-8 secretion inhibition, PMA and A23187-stimulated MC/9 mast cells (ELISA); assay type: cell-based; conditions: Mus musculus, Mast cell; positive control 10 nM; PMA + A23187, 7 hr; read-out: Inhibition rate of IL-8 (%)
Experimental: as §1, §2, §3, §4

Compound: C[C@@H]1C[C@H]2[C@@H]3CCC4=CC(=O)C=C[C@]4(C)[C@@]3(F)[C@@H](O)C[C@]2(C)[C@@]1(O)C(=O)CO [Dex, dexamethasone]
- inhibition at 0.01 µM [1]: 0.4%
- inhibition at 0.01 µM [2]: 23%
